# From patent publication US20140221354A1, “IMIDAZO [1,2-a]PYRIDINE COMPOUNDS FOR USE IN THERAPY” (EMBLEM Technology Transfer GmbH, priority 2011, published 2014)
# pEC50: −log10 of the molar value.
# System: CellSensor® HRE-bla HCT-116 stably transfected reporter cell line
# Experiment: HIF/HRE reporter assay
# Type: cell-based
# Conditions: Homo sapiens, inhibition of activated HIF signaling response, hypoxic conditions induced with deferoxamine (DFO), 24 h incubation, blue/green emission ratio, read-out: Evaluation
# Experimental: Inhibition of an activated HIF signaling response under chemically-induced hypoxic conditions due to compound treatment was determined using the CellSensor® HRE-bla HCT-116 stably transfected reporter cell line from Invitrogen according to the manufacturer's instructions.
# Cells were maintained as described previously and seeded into 384-well, clear-bottom plates (Corning 3712) at 15000 cells/well in 32 μl assay medium (Opti-MEM [Invitrogen], 0.5% FBS, 100 U/ml penicillin, 100 μg/ml streptomycin, 0.1 mM non-essential amino acids [NEAA], 1 mM sodium pyruvate, 5 mM HEPES [pH 7.3]). Following a 2 h incubation period, compounds (4 μl) were subsequently added to the cells at 10× concentrations in 5% DMSO and incubated under normal conditions for 30 min. To induce hypoxic conditions, 4 μl of a 2 mM deferoxamine (DFO) solution was added to the cells followed by 24 h incubation under standard assay conditions (as described). Control wells included wells containing only medium (no cells) and wells treated with 0.5% DMSO instead of compound.
# Prior to the readout, the Substrate Loading Solution was prepared as described in the manufacturer's protocol and 10 μl added to each well. Following a further 2 h incubation period at room temperature and in the dark, fluorescence was measured at two wavelengths (blue channel: ex. 409 nm, em. 460 nm; green channel: ex. 409 nm, em. 530 nm) on a PerkinElmer Envision HTS. For the analysis, the average signal of the cell-free wells at 460 nm and 530 nm was first subtracted from the blue and green channel data, respectively. The blue/green emission ratios were then calculated for each well, dividing the background-corrected blue emission values by the background-corrected green emission values. […] values were determined from these ratios using GraphPad Prism (Prism 5, GraphPad software, Inc.).
row,pEC50,Compound
1,> 6.30,"N#Cc1ccc(-c2nc3ccc(-c4ccncc4)cn3c2CN2CCCNCC2)cc1 [Example 27, 4-(3-((1,4-diazepan-1-yl)methyl)-6-(pyridin-4-yl)imidazo[1,2-a]pyridin-2-yl)benzonitrile]"
2,< 6.00,"N#Cc1ccc(-c2nc3ccc(-c4cncnc4)cn3c2CN2CCCNCC2)cc1 [Example 26, 4-(3-((1,4-diazepan-1-yl)methyl)-6-(pyrimidin-5-yl)imidazo[1,2-a]pyridin-2-yl)benzonitrile]"
3,> 6.30,"N#Cc1ccc(-c2nc3ccc(-c4ccc(Cl)cc4)cn3c2CN2CCCNCC2)cc1 [Example 40, 4-(3-((1,4-diazepan-1-yl)methyl)-6-(4-chlorophenyl)imidazo[1,2-a]pyridin-2-yl)benzonitrile]"

# Continued, compound first:
row,Compound,pEC50
1,"CCN1CCN(Cc2c(-c3ccc([N+](=O)[O-])cc3)nc3ccc(-c4ccccc4)cn23)CC1 [Example 6, 3-((4-ethylpiperazin-1-yl)methyl)-2-(4-nitrophenyl)-6-phenylimidazo[1,2-a]pyridine]",6.00 to 6.30
2,"CC(=O)N1CCN(Cc2c(-c3ccc([N+](=O)[O-])cc3)nc3ccc(-c4ccccc4)cn23)CC1 [Example 3, 1-(4-((2-(4-nitrophenyl)-6-phenylimidazo[1,2-a]pyridin-3-yl)methyl)piperazin-1-yl)ethanone]",6.00 to 6.30
3,"CN1CCCN(Cc2c(-c3ccc(C#N)s3)nc3ccc(-c4ccccc4)cn23)CC1 [Example 36, 5-(3-((4-methyl-1,4-diazepan-1-yl)methyl)-6-phenylimidazo[1,2-a]pyridin-2-yl)thiophene-2-carbonitrile]",> 6.30
4,"c1ccc(-c2ccc3nc(-c4cccnc4)c(CN4CCCNCC4)n3c2)cc1 [Example 15, 3-((1,4-diazepan-1-yl)methyl)-6-phenyl-2-(pyridin-3-yl)imidazo[1,2-a]pyridine]",> 6.30
5,"N#Cc1cccc(-c2nc3ccc(-c4ccccc4)cn3c2CN2CCCNCC2)c1 [Example 22, 3-(3-((1,4-diazepan-1-yl)methyl)-6-phenylimidazo[1,2-a]pyridin-2-yl)benzonitrile]",> 6.30
6,"c1ccc(-c2ccc3nc(-c4ccncc4)c(CN4CCCNCC4)n3c2)cc1 [Example 11, 3-((1,4-diazepan-1-yl)methyl)-6-phenyl-2-(pyridin-4-yl)imidazo[1,2-a]pyridine]",> 6.30
